Experimental data: PubChem BioAssay AID256 (DTP/NCI, 2004)
Where “and” joins values, the source holds several entries; their conditions need not be identical. Identical values can stand only once. Inconclusive results and toxic doses are left out.

System: CD2F1 mice, L1210 leukemia ip, survival T/C
Test: NCI In Vivo Anticancer Drug Screen. Data for tumor model L1210 Leukemia (intraperitoneal) in CD2F1 (CDF1) mice
Settings: higher = longer survival
Outline: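 Activity against a transplanted murine tumor was judged by comparing the compound group with a vehicle group. The outcome in the treated animals was divided by that in the controls.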

[1] = endpoint: mean survival time, dose: 12.5 mg/kg/injection, schedule: Q01DX005 (ip), vehicle: water
[2] = endpoint: mean survival time, dose: 25.0 mg/kg/injection, schedule: Q01DX005 (ip), vehicle: water
[3] = endpoint: mean survival time, dose: 100.0 mg/kg/injection, schedule: Q04DX003 (ip), vehicle: saline with Tween-80
[4] = endpoint: mean survival time, dose: 200.0 mg/kg/injection, schedule: Q04DX003 (ip), vehicle: saline with Tween-80
[5] = endpoint: mean survival time, dose: 400.0 mg/kg/injection, schedule: Q04DX003 (ip), vehicle: saline with Tween-80
[6] = endpoint: mean survival time, dose: 25.0 mg/kg/injection, schedule: Q01DX009 (ip), vehicle: saline with Tween-80
[7] = endpoint: mean survival time, dose: 25.0 mg/kg/injection, schedule: Q04DX003 (ip), vehicle: saline with Tween-80
[8] = endpoint: mean survival time, dose: 50.0 mg/kg/injection, schedule: Q01DX009 (ip), vehicle: saline with Tween-80
[9] = endpoint: mean survival time, dose: 50.0 mg/kg/injection, schedule: Q04DX002 (ip), vehicle: saline with Tween-80
[10] = endpoint: mean survival time, dose: 50.0 mg/kg/injection, schedule: Q04DX003 (ip), vehicle: saline with Tween-80
[11] = endpoint: mean survival time, dose: 200.0 mg/kg/injection, schedule: Q01DX001 (ip), vehicle: saline with Tween-80
[12] = endpoint: mean survival time, dose: 100.0 mg/kg/injection, schedule: Q01DX009 (ip), vehicle: saline with Tween-80
[13] = endpoint: mean survival time, dose: 200.0 mg/kg/injection, schedule: Q01DX009 (ip), vehicle: saline with Tween-80
[14] = endpoint: mean survival time, dose: 400.0 mg/kg/injection, schedule: Q01DX009 (ip), vehicle: saline with Tween-80
[15] = endpoint: mean survival time, dose: 100.0 mg/kg/injection, schedule: Q01DX001 (ip), vehicle: saline with Tween-80
[16] = endpoint: mean survival time, dose: 400.0 mg/kg/injection, schedule: Q01DX001 (ip), vehicle: saline with Tween-80

## CNNC1CCC2C3CCc4cc(O)ccc4C3CCC12C (stereo not given)
endpoint: mean survival time, dose: 12.5 mg/kg/injection, schedule: Q01DX009 (ip), vehicle: Klucel (hydroxypropylcellulose) (HPC)
  T/C: 91 % of control
endpoint: mean survival time, dose: 25.0 mg/kg/injection, schedule: Q01DX009 (ip), vehicle: Klucel (hydroxypropylcellulose) (HPC)
  T/C: 94 % of control
endpoint: mean survival time, dose: 50.0 mg/kg/injection, schedule: Q01DX009 (ip), vehicle: Klucel (hydroxypropylcellulose) (HPC)
  T/C: 91 % of control

## CN(N)c1nc2c(=O)[nH]c(N)nc2n1C1OC(CO)C(O)C1O (stereo not given)
endpoint: mean survival time, dose: 1.56 mg/kg/injection, schedule: Q01DX005 (ip), vehicle: water
  T/C: 101 % of control
endpoint: mean survival time, dose: 3.12 mg/kg/injection, schedule: Q01DX005 (ip), vehicle: water
  T/C: 101 % of control
endpoint: mean survival time, dose: 6.25 mg/kg/injection, schedule: Q01DX005 (ip), vehicle: water
  T/C: 101 % of control
[1]
  T/C: 98 % of control
[2]
  T/C: 103 % of control

## O=Cc1cccc(O)c1O
[3]
  T/C: 96 % of control
[4]
  T/C: 102 % of control
[5]
  T/C: 103 % of control

## CCOC(=O)c1ccc(NC(=O)Nc2ccc(Cl)cc2Cl)cc1
endpoint: mean survival time, dose: 12.5 mg/kg/injection, schedule: Q01DX001 (ip), vehicle: saline with Tween-80
  T/C: 95 % of control
endpoint: mean survival time, dose: 12.5 mg/kg/injection, schedule: Q01DX009 (ip), vehicle: saline with Tween-80
  T/C: 91 % of control and 92 % of control
endpoint: mean survival time, dose: 25.0 mg/kg/injection, schedule: Q01DX001 (ip), vehicle: saline with Tween-80
  T/C: 93 % of control and 96 % of control
[6]
  T/C: 88 % of control and 97 % of control
endpoint: mean survival time, dose: 25.0 mg/kg/injection, schedule: Q04DX002 (ip), vehicle: saline with Tween-80
  T/C: 95 % of control and 96 % of control
[7]
  T/C: 86 % of control
endpoint: mean survival time, dose: 50.0 mg/kg/injection, schedule: Q01DX001 (ip), vehicle: saline with Tween-80
  T/C: 91 % of control
[8]
  T/C: 88 % of control
[9]
  T/C: 88 % of control and 96 % of control
[10]
  T/C: 91 % of control
[11]
  T/C: 92 % of control
endpoint: mean survival time, dose: 200.0 mg/kg/injection, schedule: Q04DX002 (ip), vehicle: saline with Tween-80
  T/C: 88 % of control
[4]
  T/C: 89 % of control
endpoint: mean survival time, dose: 400.0 mg/kg/injection, schedule: Q04DX002 (ip), vehicle: saline with Tween-80
  T/C: 86 % of control

## CCOC(=O)NOP(=O)(N1CC1)N1CC1
endpoint: mean survival time, dose: 12.5 mg/kg/injection, schedule: Q04DX002 (ip), vehicle: saline with Tween-80
  T/C: 116 % of control
[9]
  T/C: 166 % of control
endpoint: mean survival time, dose: 100.0 mg/kg/injection, schedule: Q04DX002 (ip), vehicle: saline with Tween-80
  T/C: 186 % of control

## Cc1ccc(S(=O)(=O)NC(=O)NCCC(C)C)cc1
endpoint: mean survival time, dose: 100.0 mg/kg/injection, schedule: Q01DX009 (ip), vehicle: saline sonified
  T/C: 104 % of control
endpoint: mean survival time, dose: 200.0 mg/kg/injection, schedule: Q01DX009 (ip), vehicle: saline sonified
  T/C: 97 % of control
endpoint: mean survival time, dose: 400.0 mg/kg/injection, schedule: Q01DX009 (ip), vehicle: saline sonified
  T/C: 98 % of control

## O=[N+]([O-])c1ccc(/C=C/c2ccc([N+](=O)[O-])cc2S(=O)(=O)O)c(S(=O)(=O)O)c1
[12]
  T/C: 102 % of control
[13]
  T/C: 105 % of control
[14]
  T/C: 94 % of control

## CN(C)c1ccc(C(=C(c2ccc(N(C)C)cc2)c2ccc(N(C)C)cc2)c2ccc(N(C)C)cc2)cc1
endpoint: mean survival time, dose: 75.0 mg/kg/injection, schedule: Q01DX001 (ip), vehicle: saline
  T/C: 106 % of control

## O=P(O)(O)OCC1OC(n2cnc3c(NCc4ccco4)ncnc32)C(O)C1O (stereo not given)
[1]
  T/C: 106 % of control
[2]
  T/C: 106 % of control
endpoint: mean survival time, dose: 50.0 mg/kg/injection, schedule: Q01DX005 (ip), vehicle: water
  T/C: 103 % of control
endpoint: mean survival time, dose: 100.0 mg/kg/injection, schedule: Q01DX005 (ip), vehicle: water
  T/C: 106 % of control

## Nc1nc(=O)n(CCCOc2cccc(NC(=O)c3cccc(S(=O)(=O)F)c3)c2)cc1-c1ccc(Cl)c(Cl)c1
[15]
  T/C: 87 % of control
[11]
  T/C: 90 % of control
[16]
  T/C: 87 % of control

## Cc1ccc(C)c(N=Nc2ccc(O)cc2)c1
[3]
  T/C: 104 % of control
[4]
  T/C: 100 % of control
[5]
  T/C: 105 % of control

## CC(C)(C)OC(=O)Cc1ncnc2c1ncn2C1OC(CO)C(O)C1O (stereo not given)
endpoint: mean survival time, dose: 12.5 mg/kg/injection, schedule: Q01DX005 (ip), vehicle: distilled water + Tween-80
  T/C: 103 % of control
endpoint: mean survival time, dose: 25.0 mg/kg/injection, schedule: Q01DX005 (ip), vehicle: distilled water + Tween-80
  T/C: 102 % of control
endpoint: mean survival time, dose: 50.0 mg/kg/injection, schedule: Q01DX005 (ip), vehicle: distilled water + Tween-80
  T/C: 96 % of control
endpoint: mean survival time, dose: 100.0 mg/kg/injection, schedule: Q01DX005 (ip), vehicle: distilled water + Tween-80
  T/C: 97 % of control
endpoint: mean survival time, dose: 200.0 mg/kg/injection, schedule: Q01DX005 (ip), vehicle: distilled water + Tween-80
  T/C: 102 % of control

## CC(=O)OC1C(OC(C)=O)C(OC(C)=O)C2OC(C)(C)OC2C1OC(C)=O (stereo not given)
endpoint: mean survival time, dose: 100.0 mg/kg/injection, schedule: Q01DX009 (ip), vehicle: Klucel (hydroxypropylcellulose) (HPC)
  T/C: 96 % of control
endpoint: mean survival time, dose: 200.0 mg/kg/injection, schedule: Q01DX009 (ip), vehicle: Klucel (hydroxypropylcellulose) (HPC)
  T/C: 93 % of control
endpoint: mean survival time, dose: 400.0 mg/kg/injection, schedule: Q01DX009 (ip), vehicle: Klucel (hydroxypropylcellulose) (HPC)
  T/C: 100 % of control

## CC(=O)OC1COC(NC(=O)N(CCCl)N=O)C(OC(C)=O)C1OC(C)=O (stereo not given)
endpoint: median survival time, dose: 0.75 mg/kg/injection, schedule: Q01DX009 (ip), vehicle: saline with Tween-80
  T/C: 115 % of control and 122 % of control and 111 % of control
endpoint: median survival time, dose: 3.0 mg/kg/injection, schedule: Q01DX009 (ip), vehicle: saline with Tween-80
  T/C: 150 % of control and 166 % of control
endpoint: median survival time, dose: 6.0 mg/kg/injection, schedule: Q01DX009 (ip), vehicle: saline with Tween-80
  T/C: 168 % of control and 191 % of control and 205 % of control
endpoint: median survival time, dose: 12.0 mg/kg/injection, schedule: Q01DX009 (ip), vehicle: saline with Tween-80
  T/C: 315 % of control and 322 % of control and 674 % of control

## CNC(=O)O/N=C1\CCCc2sccc21
[15]
  T/C: 110 % of control
[11]
  T/C: 110 % of control
[16]
  T/C: 101 % of control

## O=C1c2ccccc2S(=O)(=O)N1CCBr
[12]
  T/C: 97 % of control
[3]
  T/C: 106 % of control
[13]
  T/C: 100 % of control
[4]
  T/C: 106 % of control
[14]
  T/C: 102 % of control
[5]
  T/C: 110 % of control

## O=NNc1ccc2cccnc2n1
endpoint: median survival time, dose: 12.5 mg/kg/injection, schedule: Q01DX005 (ip), vehicle: water
  T/C: 153 % of control
endpoint: median survival time, dose: 25.0 mg/kg/injection, schedule: Q01DX005 (ip), vehicle: water
  T/C: 162 % of control
endpoint: median survival time, dose: 50.0 mg/kg/injection, schedule: Q01DX005 (ip), vehicle: water
  T/C: 164 % of control
endpoint: median survival time, dose: 60.0 mg/kg/injection, schedule: Q01DX005 (ip), vehicle: water
  T/C: 223 % of control
endpoint: median survival time, dose: 100.0 mg/kg/injection, schedule: Q01DX005 (ip), vehicle: water
  T/C: 175 % of control and 181 % of control
endpoint: median survival time, dose: 166.66 mg/kg/injection, schedule: Q01DX005 (ip), vehicle: water
  T/C: 105 % of control

## COc1ccc(COc2ccc(Cl)cc2)cc1
endpoint: mean survival time, dose: 75.0 mg/kg/injection, schedule: Q04DX002 (ip), vehicle: saline with Tween-80
  T/C: 87 % of control
endpoint: mean survival time, dose: 150.0 mg/kg/injection, schedule: Q04DX002 (ip), vehicle: saline with Tween-80
  T/C: 98 % of control
endpoint: mean survival time, dose: 300.0 mg/kg/injection, schedule: Q04DX002 (ip), vehicle: saline with Tween-80
  T/C: 106 % of control

## CC(C)c1ccc2c(c1)CC[C@H]1[C@](C)(C#N)CCC[C@]21C
[12]
  T/C: 95 % of control
[13]
  T/C: 94 % of control

## O=C(NO)c1ccc(O)cc1
endpoint: mean survival time, dose: 267.0 mg/kg/injection, schedule: Q01DX009 (ip), vehicle: saline
  T/C: 120 % of control

## N=C(N)N
[8]
  T/C: 96 % of control
[12]
  T/C: 98 % of control
[3]
  T/C: 96 % of control
[13]
  T/C: 96 % of control
[4]
  T/C: 94 % of control

## CCOc1ccc(NC(=O)C2CCC(C)(C(=O)O)C2(C)C)cc1 (stereo not given)
[6]
  T/C: 102 % of control
[7]
  T/C: 98 % of control
[8]
  T/C: 98 % of control
[10]
  T/C: 100 % of control
[12]
  T/C: 95 % of control
[3]
  T/C: 96 % of control and 98 % of control

## CC12OCCN1CC(COc1ccccc1)O2 (stereo not given)
[3]
  T/C: 104 % of control
[4]
  T/C: 98 % of control
[5]
  T/C: 110 % of control

## O=C1C=CC(=O)N1c1ccc(Cl)cc1 (tested in a mixture with another compound)
[12]
  T/C: 93 % of control
[13]
  T/C: 87 % of control
[14]
  T/C: 98 % of control
